In ChEMBL document CHEMBL1146649, “New highly active taxoids from 9 beta-dihydrobaccatin-9,10-acetals. Part 5” (2004):
Converted amounts (≈) assume the structure as drawn.

Experiments:
PC-6 [1] = test: Concentration required to inhibit human PC-6 cell line growth by 50% at 72 hr continuous exposure; type: functional; settings: PC-6, 72 h
B16 [2] = test: Effective dose of perorally administered compound against B16 melanoma BL6 cells implanted into mice; type: functional; settings: Mus musculus, B16, po
Mus musculus [3] = test: Effective dose of intravenously administered compound against B16 melanoma BL6 cells implanted into mice; range is 7.8-17.8; type: functional; settings: B16, iv
PC-12 = test: Concentration required to inhibit human PC-12 cell line growth by 50% at 72 hr continuous exposure; type: functional; settings: PC-12, 72 h
PC-6 [4] = test: Concentration required to inhibit human PC-6/VP1-1 cell line growth by 50% at 72 hr exposure; type: functional; settings: PC-6, 72 h
P388 = test: Concentration required to inhibit mouse P388 cell line growth by 50% at 72 hr continuous exposure; type: functional; settings: P388, 72 h
PC-6 [5] = test: Concentration required to inhibit human PC-6/VCR29-9 cell line growth by 50% at 72 hr exposure; type: functional; settings: PC-6, 72 h
PC-6 [6] = test: Concentration that inhibited the growth of PC-6/VCR29-9 cells by 50% at 72 hr continuous exposure; type: functional; settings: Homo sapiens, PC-6, 72 h
Mus musculus [7] = test: Effective dose of intravenously administered compound against B16 melanoma BL6 cells implanted into mice; range is 3.5-5.3; type: functional; settings: B16, iv
Mus musculus [8] = test: Number of mice died at 100 mg/kg of peroral dose of compound among the total 6 mice tested; type: functional; settings: route oral
Mus musculus [9] = test: Antitumor activity of 100 mg/kg of perorally administered compound against B16 melanoma BL6 cells implanted into mice, value reported is percent compared to control; type: functional; settings: route oral
Mus musculus [10] = test: Maximum rate of body weight loss after peroral administration of 600 mg/kg of compound in mice; <0 indicates no body weight loss; type: functional; settings: route oral
Mus musculus [11] = test: Number of mice died at 600 mg/kg of peroral dose of compound among the total 6 mice tested; type: functional; settings: route oral
Mus musculus [12] = test: Antitumor activity of 600 mg/kg of perorally administered compound against B16 melanoma BL6 cells implanted into mice, value reported is percent compared to control; type: functional; settings: route oral
Mus musculus [13] = test: Maximum rate of body weight loss after peroral administration of 100 mg/kg of compound in mice; type: functional; settings: route oral
Mus musculus [14] = test: Number of mice died at 11.9 mg/kg of peroral dose, among the total 6 mice tested; type: functional; settings: route oral
B16 [15] = test: Antitumor activity of 17.8 mg/kg of perorally administered compound against B16 melanoma BL6 cells implanted into mice, value reported is percent compared to control; type: functional, Mus musculus; settings: route oral
Mus musculus [16] = test: Number of mice died at 5.3 mg/kg of intravenous dose of compound among the total 6 mice tested; type: functional
Mus musculus [17] = test: Effective dose of perorally administered compound against B16 melanoma BL6 cells implanted into mice; range is 11.9-17.8; type: functional; settings: B16, po
Mus musculus [18] = test: Maximum rate of body weight loss after intravenous administration of 7.8 mg/kg of compound in mice; type: functional
Mus musculus [19] = test: Number of mice died at 17.8 mg/kg of intravenous dose among the total 6 mice tested; type: functional
Mus musculus [20] = test: Number of mice died at 7.8 mg/kg of intravenous dose of compound among the total 6 mice tested; type: functional
Mus musculus [21] = test: Number of mice died at 7.9 mg/kg of peroral dose of compound among the total 6 mice tested; type: functional; settings: route oral
Mus musculus [22] = test: Number of mice died at 17.8 mg/kg of peroral dose among the total 6 mice tested; type: functional; settings: route oral
Mus musculus [23] = test: Antitumor activity of 5.3 mg/kg of intravenously administered compound against B16 melanoma BL6 cells implanted into mice, value reported is percent compared to control; type: functional; settings: route intravenous
Mus musculus [24] = test: Number of mice died at 26.7 mg/kg of peroral dose of compound among the total 6 mice tested; type: functional; settings: route oral
Mus musculus [25] = test: Maximum rate of body weight loss after peroral administration of 11.9 mg/kg of compound in mice; type: functional; settings: route oral
Mus musculus [26] = test: Antitumor activity of 7.8 mg/kg of intravenously administered compound against B16 melanoma BL6 cells implanted into mice, value reported is percent compared to control; type: functional; settings: route intravenous
Mus musculus [27] = test: Maximum rate of body weight loss after peroral administration of 17.8 mg/kg of compound in mice; type: functional; settings: route oral
Mus musculus [28] = test: Antitumor activity of 7.9 mg/kg of perorally administered compound against B16 melanoma BL6 cells implanted into mice, value reported is percent compared to control; type: functional; settings: route oral
B16 [29] = test: Antitumor activity of 11.9 mg/kg of intravenously administered compound against B16 melanoma BL6 cells implanted into mice, value reported is percent compared to control; type: functional, Mus musculus; settings: route intravenous
Mus musculus [30] = test: Maximum rate of body weight loss after intravenous administration of 11.9 mg/kg of compound in mice; type: functional
Mus musculus [31] = test: Maximum rate of body weight loss after intravenous administration of 5.3 mg/kg of compound in mice; <0 indicates no weight loss; type: functional
Mus musculus [32] = test: Number of mice died at 11.9 mg/kg of intravenous dose, among the total 6 mice tested; type: functional
Mus musculus [33] = test: Effective dose of intravenously administered compound against B16 melanoma BL6 cells implanted into mice; range is 7.8-11.9; type: functional; settings: B16, iv
B16 [34] = test: Antitumor activity of 11.9 mg/kg of perorally administered compound against B16 melanoma BL6 cells implanted into mice, value reported is percent compared to control; type: functional, Mus musculus; settings: route oral
Mus musculus [35] = test: Maximum rate of body weight loss after peroral administration of 7.9 mg/kg of compound in mice; <0 indicates no weight loss; type: functional; settings: route oral
Mus musculus [36] = test: Maximum rate of body weight loss after intravenous administration of 5.3 mg/kg of compound in mice; type: functional
Mus musculus [37] = test: Maximum rate of body weight loss after peroral administration of 7.9 mg/kg of compound in mice; type: functional; settings: route oral
Mus musculus [38] = test: Number of mice died at 5.3 mg/kg of peroral dose of compound among the total 6 mice tested; type: functional; settings: route oral
Mus musculus [39] = test: Antitumor activity of 7.9 mg/kg of intravenously administered compound against B16 melanoma BL6 cells implanted into mice, value reported is percent compared to control; type: functional; settings: route intravenous
Mus musculus [40] = test: Maximum rate of body weight loss after peroral administration of 5.3 mg/kg of compound in mice; type: functional; settings: route oral
Mus musculus [41] = test: Antitumor activity of 5.3 mg/kg of perorally administered compound against B16 melanoma BL6 cells implanted into mice, value reported is percent compared to control; type: functional; settings: route oral
Mus musculus [42] = test: Maximum rate of body weight loss after intravenous administration of 7.9 mg/kg of compound in mice; type: functional
Mus musculus [43] = test: Effective dose of perorally administered compound against B16 melanoma BL6 cells implanted into mice; range is 7.9-11.0; type: functional; settings: B16, po
Mus musculus [44] = test: Effective dose of intravenously administered compound against B16 melanoma BL6 cells implanted into mice; range is 5.3-11.9; type: functional; settings: B16, iv
Mus musculus [45] = test: Number of mice died at 7.9 mg/kg of intravenous dose of compound among the total 6 mice tested; type: functional

| SMILES | GI50 (PC-6 [1]) [ng/mL] | ED50 (B16 [2]) [mg/kg] | GI50 (PC-12) [ng/mL] | GI50 (PC-6 [4]) [ng/mL] | GI50 (P388) [ng/mL] | GI50 (PC-6 [5]) [ng/mL] | Mortality (Mus musculus [14]) | IR (B16 [15]) [%] | Mortality (Mus musculus [16]) | Mortality (Mus musculus [19]) | Mortality (Mus musculus [21]) | Mortality (Mus musculus [22]) | IR (Mus musculus [23]) [%] | BWLmax (Mus musculus [25]) [%] | BWLmax (Mus musculus [27]) [%] | IR (Mus musculus [28]) [%] | IR (B16 [29]) [%] | BWLmax (Mus musculus [30]) [%] | Mortality (Mus musculus [32]) | IR (B16 [34]) [%] | also measured |
| --- | --- | --- | --- | --- | --- | --- | --- | --- | --- | --- | --- | --- | --- | --- | --- | --- | --- | --- | --- | --- | --- |
| CC(=O)O[C@@]12CO[C@@H]1CC[C@@]1(C)[C@@H]3O[C@H](CN(C)C)O[C@@H]3C3=C(C)[C@@H](OC(=O)[C@H](O)[C@@H](NC(=O)OC(C)(C)C)c4nccs4)C[C@@](O)([C@@H](OCc4ccccc4)[C@@H]12)C3(C)C | 0.27 (≈ 0.315 nM) | 11.9 | 0.35 (≈ 0.409 nM) | 39.1 (≈ 45.7 nM) | 0.25 (≈ 0.292 nM) | 2.81 (≈ 3.28 nM) |  |  |  |  |  |  |  |  |  |  |  |  |  |  | ED50 (Mus musculus [3]): 17.8 mg/kg |
| CC(=O)O[C@@]12CO[C@@H]1CC[C@@]1(C)[C@@H]3O[C@H](CN4CCOCC4)O[C@@H]3C3=C(C)[C@@H](OC(=O)[C@H](O)[C@@H](NC(=O)OC(C)(C)C)c4cscn4)C[C@@](O)([C@@H](OCc4ccccc4)[C@@H]12)C3(C)C | 0.65 (≈ 0.724 nM) | 7.9 | 0.08 (≈ 0.0891 nM) | 9.13 (≈ 10.2 nM) | 0.03 (≈ 0.0334 nM) |  |  |  |  |  |  |  |  |  |  |  |  |  |  |  | GI50 (PC-6 [6]): 1.02 ng/mL (≈ 1.14 nM); ED50 (Mus musculus [7]): 5.3 mg/kg |
| CC(=O)O[C@@]12CO[C@@H]1C[C@H](O)[C@@]1(C)C(=O)[C@H](O)C3=C(C)[C@@H](OC(=O)[C@H](O)[C@@H](NC(=O)OC(C)(C)C)c4ccccc4)C[C@@](O)([C@@H](OCc4ccccc4)[C@H]21)C3(C)C | 0.26 (≈ 0.327 nM) |  | 19.1 (≈ 24.1 nM) | 442 (≈ 557 nM) | 0.78 (≈ 0.982 nM) | 62.1 (≈ 78.2 nM) |  |  |  |  |  |  |  |  |  |  |  |  |  |  | Mortality (Mus musculus [8]): 0; IR (Mus musculus [9]): 95.1%; BWLmax (Mus musculus [10]): <0%; Mortality (Mus musculus [11]): 0; IR (Mus musculus [12]): 6.2%; BWLmax (Mus musculus [13]): <0% |
| CC(=O)O[C@@]12CO[C@@H]1CC[C@@]1(C)[C@@H]3O[C@H](CN4CCOCC4)O[C@@H]3C3=C(C)[C@@H](OC(=O)[C@H](O)[C@@H](NC(=O)OC(C)(C)C)C(C)(C)C)C[C@@](O)([C@@H](OCc4ccccc4)[C@@H]12)C3(C)C | 0.7 (≈ 0.804 nM) |  | 0.13 (≈ 0.149 nM) | 5.56 (≈ 6.38 nM) | 0.34 (≈ 0.39 nM) | 0.85 (≈ 0.976 nM) | 0 | 90.3 | 0 | 6 | 0 | 0 | 28.6 | 0.4 | 11.7 | 25.5 | 93.8 | 10.5 | 0 | 63.4 | ED50 (Mus musculus [17]): 17.8 mg/kg; BWLmax (Mus musculus [18]): <1.2%; Mortality (Mus musculus [20]): 0; Mortality (Mus musculus [24]): 6; IR (Mus musculus [26]): 71.9%; BWLmax (Mus musculus [31]): <0%; ED50 (Mus musculus [33]): 11.9 mg/kg; BWLmax (Mus musculus [35]): <0% |
| CC(=O)O[C@@]12CO[C@@H]1CC[C@@]1(C)[C@@H]3O[C@H](CN(C)C)O[C@@H]3C3=C(C)[C@@H](OC(=O)[C@H](O)[C@@H](NC(=O)OC(C)(C)C)c4cccc(F)n4)C[C@@](O)([C@@H](OCc4ccccc4)[C@@H]12)C3(C)C | 0.38 (≈ 0.438 nM) |  | 0.62 (≈ 0.714 nM) | 21.3 (≈ 24.5 nM) | 0.67 (≈ 0.772 nM) | 2.58 (≈ 2.97 nM) | 0 | 94.8 | 0 | 6 | 0 | 5 | 67.6 | 12.9 | 13.9 | 91.5 | 95.6 | 12 | 0 | 97.4 | BWLmax (Mus musculus [36]): 2%; BWLmax (Mus musculus [37]): 3.8%; Mortality (Mus musculus [38]): 0; IR (Mus musculus [39]): 91.5%; BWLmax (Mus musculus [40]): <0%; IR (Mus musculus [41]): 42.4%; BWLmax (Mus musculus [42]): 2.9%; ED50 (Mus musculus [43]): 11 mg/kg; ED50 (Mus musculus [44]): 11.9 mg/kg; Mortality (Mus musculus [45]): 0 |
